# PubChem BioAssay AID330 (DTP/NCI, 2004)
# Values joined by “and” are separate entries in the source; they are usually repeats but may differ in a detail not shown here. Equal values may be shown once. Inconclusive results and toxic doses are left out. Square brackets hold non-standard residues; d marks the D form. Peptide text beside a SMILES is read from it. * marks the point of attachment. Tyr(3,5-I2) = N[CH](Cc1cc(I)c(O)c(I)c1)C(=O)O; For = O=C*
# Tested on: P388 leukemia ip, CD2F1 mice, survival T/C
# Assay: NCI In Vivo Anticancer Drug Screen. Data for tumor model P388 Leukemia (intraperitoneal) in CD2F1 (CDF1) mice
# Settings: endpoint: median survival time, higher = longer survival
# Outline: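 Mice carrying the transplanted tumor received test compound or vehicle. Survival was recorded in each group, and the value is the treated-group measurement divided by that of the vehicle-treated control group.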
# [1] = dose: 25.0 mg/kg/injection, schedule: Q01DX009 (ip), vehicle: other
# [2] = dose: 50.0 mg/kg/injection, schedule: Q01DX009 (ip), vehicle: other
# [3] = dose: 100.0 mg/kg/injection, schedule: Q01DX009 (ip), vehicle: other
# [4] = dose: 200.0 mg/kg/injection, schedule: Q01DX009 (ip), vehicle: other
# [5] = dose: 100.0 mg/kg/injection, schedule: Q01DX001 (ip), vehicle: saline with Tween-80
# [6] = dose: 50.0 mg/kg/injection, schedule: Q01DX005 (ip), vehicle: Klucel (hydroxypropylcellulose) (HPC)
# [7] = dose: 60.0 mg/kg/injection, schedule: Q01DX005 (ip), vehicle: saline with Tween-80
# [8] = dose: 120.0 mg/kg/injection, schedule: Q01DX005 (ip), vehicle: saline with Tween-80
# [9] = dose: 240.0 mg/kg/injection, schedule: Q01DX005 (ip), vehicle: saline with Tween-80
# [10] = dose: 50.0 mg/kg/injection, schedule: Q01DX005 (ip), vehicle: saline with Tween-80
# [11] = dose: 100.0 mg/kg/injection, schedule: Q01DX005 (ip), vehicle: saline with Tween-80
structure (smiles),measurement,setting,value
CC1=CCC2C3(C)C=CC(=O)C(C)(C)C3CC3OC(=O)C=C1C32C (stereo not given),T/C,"dose: 0.75 mg/kg/injection, schedule: Q01DX009 (ip), vehicle: Klucel (hydroxypropylcellulose) (HPC)",102 % of control
same,T/C,"dose: 1.5 mg/kg/injection, schedule: Q01DX009 (ip), vehicle: Klucel (hydroxypropylcellulose) (HPC)",98 % of control and 102 % of control
same,T/C,"dose: 3.0 mg/kg/injection, schedule: Q01DX009 (ip), vehicle: Klucel (hydroxypropylcellulose) (HPC)",101 % of control
same,T/C,"dose: 6.0 mg/kg/injection, schedule: Q01DX009 (ip), vehicle: Klucel (hydroxypropylcellulose) (HPC)",97 % of control
same,T/C,"dose: 12.0 mg/kg/injection, schedule: Q01DX009 (ip), vehicle: Klucel (hydroxypropylcellulose) (HPC)",100 % of control and 97 % of control
same,T/C,"dose: 24.0 mg/kg/injection, schedule: Q01DX009 (ip), vehicle: Klucel (hydroxypropylcellulose) (HPC)",100 % of control
COc1cccc2c1C(=O)c1c(O)c3c(c(O)c1C2=O)C[C@@](O)(C(C)=O)C[C@@H]3OC(=O)CCN,T/C,"dose: 0.78 mg/kg/injection, schedule: Q01DX009 (ip), vehicle: water",112 % of control
same,T/C,"dose: 1.56 mg/kg/injection, schedule: Q01DX009 (ip), vehicle: water",110 % of control
same,T/C,"dose: 3.13 mg/kg/injection, schedule: Q01DX009 (ip), vehicle: water",118 % of control
same,T/C,"dose: 8.33 mg/kg/injection, schedule: Q01DX009 (ip), vehicle: water",123 % of control
same,T/C,"dose: 12.5 mg/kg/injection, schedule: Q01DX009 (ip), vehicle: water",120 % of control
same,T/C,"dose: 18.8 mg/kg/injection, schedule: Q01DX009 (ip), vehicle: water",101 % of control
same,T/C,"dose: 25.0 mg/kg/injection, schedule: Q01DX009 (ip), vehicle: water",118 % of control
C=C1CCCC2(C)C(OC(C)=O)C=C3C(C)(CCC3(O)C(C)C)CC12O (stereo not given),T/C,"dose: 0.5 mg/kg/injection, schedule: Q01DX009 (ip), vehicle: saline + alcohol",110 % of control
same,T/C,"dose: 1.0 mg/kg/injection, schedule: Q01DX009 (ip), vehicle: saline + alcohol",108 % of control
same,T/C,"dose: 2.0 mg/kg/injection, schedule: Q01DX009 (ip), vehicle: saline + alcohol",102 % of control
O=C(O)CNOCc1ccccc1,T/C,"dose: 12.5 mg/kg/injection, schedule: Q01DX009 (ip), vehicle: other",95 % of control
same,T/C,[1],102 % of control
same,T/C,[2],102 % of control
same,T/C,[3],93 % of control
same,T/C,[4],89 % of control
CC(NC=O)C(=O)NCC(=O)NC(CO)C(=O)NC(CCC(=O)O)C(=O)O (stereo not given) (For-AGSE-OH; configuration not given here),T/C,"dose: 7.81 mg/kg/injection, schedule: Q01DX005 (ip), vehicle: water",105 % of control
same,T/C,"dose: 15.63 mg/kg/injection, schedule: Q01DX005 (ip), vehicle: water",104 % of control
same,T/C,"dose: 31.25 mg/kg/injection, schedule: Q01DX005 (ip), vehicle: water",101 % of control
same,T/C,"dose: 62.5 mg/kg/injection, schedule: Q01DX005 (ip), vehicle: water",101 % of control
same,T/C,"dose: 125.0 mg/kg/injection, schedule: Q01DX005 (ip), vehicle: water",99 % of control
O=C1CSC(=S)N1c1ccc(Br)cc1,T/C,"dose: 50.0 mg/kg/injection, schedule: Q01DX009 (ip), vehicle: Klucel (hydroxypropylcellulose) (HPC)",106 % of control
same,T/C,"dose: 100.0 mg/kg/injection, schedule: Q01DX009 (ip), vehicle: Klucel (hydroxypropylcellulose) (HPC)",105 % of control
same,T/C,"dose: 200.0 mg/kg/injection, schedule: Q01DX009 (ip), vehicle: Klucel (hydroxypropylcellulose) (HPC)",108 % of control
O=C(O)C1C(C(=O)O)C2(Cl)C(Cl)=C(Cl)C1(Cl)C2(Cl)Cl.[Fe] (stereo not given),T/C,"dose: 6.25 mg/kg/injection, schedule: Q01DX001 (ip), vehicle: saline with Tween-80",100 % of control
same,T/C,"dose: 12.5 mg/kg/injection, schedule: Q01DX001 (ip), vehicle: saline with Tween-80",104 % of control
same,T/C,"dose: 25.0 mg/kg/injection, schedule: Q01DX001 (ip), vehicle: saline with Tween-80",109 % of control
C=CCN(CC=C)c1cc(Cl)nnc1Cl,T/C,[1],104 % of control
same,T/C,[2],102 % of control
same,T/C,[3],103 % of control
same,T/C,[4],109 % of control
c1ccc(C2=NC3CCCCC3N=C2c2ccccc2)cc1 (stereo not given),T/C,"dose: 100.0 mg/kg/injection, schedule: Q01DX009 (ip), vehicle: saline with Tween-80",100 % of control
same,T/C,"dose: 200.0 mg/kg/injection, schedule: Q01DX009 (ip), vehicle: saline with Tween-80",100 % of control
same,T/C,"dose: 400.0 mg/kg/injection, schedule: Q01DX009 (ip), vehicle: saline with Tween-80",100 % of control
CC(C)(C)N=C(CCNC1CCCCC1)Nc1cccc(C(F)(F)F)c1,T/C,"dose: 25.0 mg/kg/injection, schedule: Q01DX001 (ip), vehicle: saline",98 % of control
same,T/C,"dose: 50.0 mg/kg/injection, schedule: Q01DX001 (ip), vehicle: saline",101 % of control
same,T/C,[5],101 % of control
same,T/C,"dose: 100.0 mg/kg/injection, schedule: Q01DX001 (ip), vehicle: saline",113 % of control
Cc1[nH]c2c(ccc3ccccc32)c(=O)c1N=Nc1ccc(C(=N)N)cc1,T/C,"dose: 50.0 mg/kg/injection, schedule: Q01DX005 (ip), vehicle: Klucel + Tween-80",124 % of control
same,T/C,"dose: 200.0 mg/kg/injection, schedule: Q01DX005 (ip), vehicle: Klucel + Tween-80",154 % of control
same,T/C,"dose: 400.0 mg/kg/injection, schedule: Q01DX005 (ip), vehicle: Klucel + Tween-80",168 % of control
"CC(=O)NC(Cc1ccccc1)C(=O)NC(Cc1cc(I)c(O)c(I)c1)C(=O)O (stereo not given) (Ac-Phe-[Tyr(3,5-I2)]-OH; configuration not given here)",T/C,[6],93 % of control
same,T/C,"dose: 100.0 mg/kg/injection, schedule: Q01DX005 (ip), vehicle: Klucel (hydroxypropylcellulose) (HPC)",107 % of control
same,T/C,"dose: 200.0 mg/kg/injection, schedule: Q01DX005 (ip), vehicle: Klucel (hydroxypropylcellulose) (HPC)",99 % of control
CSc1nc(N)c2cnn(Cc3ccccc3)c2n1,T/C,[5],102 % of control
same,T/C,"dose: 200.0 mg/kg/injection, schedule: Q01DX001 (ip), vehicle: saline with Tween-80",100 % of control
same,T/C,"dose: 400.0 mg/kg/injection, schedule: Q01DX001 (ip), vehicle: saline with Tween-80",94 % of control
Cc1cccc(Cl)c1NC(=O)N(C)c1ccccc1,T/C,[7],99 % of control
same,T/C,[8],100 % of control
same,T/C,[9],97 % of control
Cc1ccc(C[n+]2cc3ccccc3cc2/C=N\O)cc1,T/C,[10],98 % of control
same,T/C,[11],109 % of control
O=C1c2ccccc2C(=O)c2c1nc1sccn21,T/C,"dose: 3.12 mg/kg/injection, schedule: Q01DX005 (ip), vehicle: Klucel (hydroxypropylcellulose) (HPC)",104 % of control
same,T/C,"dose: 6.25 mg/kg/injection, schedule: Q01DX005 (ip), vehicle: Klucel (hydroxypropylcellulose) (HPC)",108 % of control
same,T/C,"dose: 12.5 mg/kg/injection, schedule: Q01DX005 (ip), vehicle: Klucel (hydroxypropylcellulose) (HPC)",102 % of control and 104 % of control
same,T/C,[6],105 % of control
NC(=S)N/N=C/c1cn(-c2ccccc2[N+](=O)[O-])cn1,T/C,"dose: 100.0 mg/kg/injection, schedule: Q04DX003 (ip), vehicle: Klucel (hydroxypropylcellulose) (HPC)",103 % of control
same,T/C,"dose: 200.0 mg/kg/injection, schedule: Q04DX003 (ip), vehicle: Klucel (hydroxypropylcellulose) (HPC)",90 % of control
O=S(=O)(Nc1ncccn1)c1ccc(N=Cc2c3ccccc3nc3cc(Cl)ccc23)cc1,T/C,[10],91 % of control
same,T/C,[11],90 % of control
same,T/C,"dose: 200.0 mg/kg/injection, schedule: Q01DX005 (ip), vehicle: saline with Tween-80",89 % of control
O=C1C2CCSCN2C(=O)N1c1ccccc1 (stereo not given),T/C,[7],95 % of control
same,T/C,[8],103 % of control
same,T/C,[9],95 % of control
O=S(=O)(Nc1ccc(Br)c2ccccc12)c1ccccc1,T/C,"dose: 18.75 mg/kg/injection, schedule: Q01DX001 (ip), vehicle: saline with Tween-80",95 % of control
same,T/C,"dose: 37.5 mg/kg/injection, schedule: Q01DX001 (ip), vehicle: saline with Tween-80",95 % of control
same,T/C,"dose: 75.0 mg/kg/injection, schedule: Q01DX001 (ip), vehicle: saline with Tween-80",95 % of control
CN(C)c1nc(OC2C(C3COC(C)(C)O3)OC3OC(C)(C)OC32)nc(N(C)C)n1 (stereo not given),T/C,"dose: 100.0 mg/kg/injection, schedule: Q04DX003 (ip), vehicle: saline with Tween-80",99 % of control
same,T/C,"dose: 200.0 mg/kg/injection, schedule: Q04DX003 (ip), vehicle: saline with Tween-80",100 % of control
same,T/C,"dose: 400.0 mg/kg/injection, schedule: Q04DX003 (ip), vehicle: saline with Tween-80",100 % of control
